These are literature values, as cited in patent US20230321005A1, “PHYTONADIONE COMPOSITIONS” (CIPLA LIMITED, priority 2020, published 2023).

For series [1] the following is noted: forms multiple peroxide and epoxy impurities.

Each structure is given as a SMILES string.

With `CC1=C(C/C=C(\C)CCC[C@H](C)CCC[C@H](C)CCCC(C)C)C(=O)c2ccccc2C1=O` [Phytonadione, 2 - methyl - 3 - phytyl - 1, 4 - naphthoquinone], the “Solubility in aqueous solvents” value is given as “insoluble”. Besides, the “Susceptibility to oxidative and photolytic degradation” value in series [1] is “highly susceptible”.
